We go through 79 sequences from the OligoGym collection.

The data set concerns the target HSD17B13. Conditions: ASO, HepaRG.

After the bases stand the sugars from the 5' end (letter, count) and the backbone: PS all phosphorothioate, else s phosphorothioate and o phosphodiester by linkage. Methylation of C is not given here. e = 2'-O-(2-methoxyethyl) (MOE); k = constrained ethyl (cEt); d = 2'-deoxy (DNA); m = 2'-O-methyl

Take GTTATACAGAAGACAG (sugars k3 d10 k3, PS): the target mRNA inhibition (1 µM) amounted to 54%.
Still for that read-out and setting: to CAGACTTCTTACGACT (sugars k3 d10 k3, PS) belongs 33%.
Still for that read-out and setting: the result for TACCTCTAAGTTAGCC (sugars k3 d10 k3, PS) reads 28%.
Still for that read-out and setting: to GTAATAGGCAGTAAAG (sugars k3 d10 k3, PS) belongs 77%.
CCGTTATAAGTTTCAT (sugars k3 d10 k3, PS) had a target mRNA inhibition (1 µM) of 54%.
Same read-out and setting: the result for AGACAATTAACATTCG (sugars k3 d10 k3, PS) reads 62%; that for AAGATACCCAGGTTGC (sugars k3 d10 k3, PS), 59%.
On the same count and under the same terms, to CATACCCATTCTAACT (sugars k3 d10 k3, PS) belongs 6%; to ATTGTTTAGCTGATAG (sugars k3 d10 k3, PS), 61%; to GTTTTTAAGAGGCATG (sugars k3 d10 k3, PS), 63%.
Same read-out and setting: the result for CTTTAGTCAACAGTAC (sugars k3 d10 k3, PS) reads 12%; that for TTCACCAACGACTCCA (sugars k3 d10 k3, PS), 62%.
In the case of TATCATACCACATACC (sugars k3 d10 k3, PS), the target mRNA inhibition (1 µM) stood at 24%.
The same measure, in the same setting: the result for TGTTAGGACCCAGTCT (sugars k3 d10 k3, PS) reads 51%.
Still for that read-out and setting: the result for GACAATTAACATTCGG (sugars k3 d10 k3, PS) reads 69%; that for “TGCAUCTTAAGATACC (sugars k3 d1 m1 d8 k3, PS)”, 51%.
Consider GCTACAGATTGGAATG (sugars k3 d10 k3, PS), for which, under “1 µM”, the target mRNA inhibition was found to be 47%.
Same read-out and setting: to GAAGATTAGTTAACCT (sugars k3 d10 k3, PS) belongs 13%; to AGTAATAAAGTCCAGA (sugars k3 d10 k3, PS), 43%.
Still for that read-out and setting: to GAATTGCTCACCCTTT (sugars k3 d10 k3, PS) belongs 24%.
Still for that read-out and setting: to TTCATAAGTAGTCTGC (sugars k3 d10 k3, PS) belongs 64%; to TGTGTAGTCCTAGGGA (sugars k3 d10 k3, PS), 50%.
Regarding AGAAGTATGTGAACTC (sugars k3 d10 k3, PS), where the note is “1 µM”, the target mRNA inhibition stood at 41%.
On to AGACCAAAAAGATGGC (sugars k3 d10 k3, PS), for which the target mRNA inhibition runs as follows: (0.02 µM) 4%; (0.078 µM) 35%; (0.313 µM) 69%; (1 µM) 80%; (1.25 µM) 82%; (5 µM) 72%.
As for AGTCGGATTATTTTTT (sugars k3 d10 k3, PS), under “1 µM”, the target mRNA inhibition turned out to be 42%.
On the same count and under the same terms, the result for “TCTTGACAATGGTTGA (sugars kkdddddddddkekek, PS)” reads 40%; that for “CTAGUGCCAAACCAAT (sugars k3 d1 m1 d8 k3, PS)”, 45%.
Turning to TAGAGTGAATCATTCA (sugars k3 d10 k3, PS), the target mRNA inhibition by setting is: (0.02 µM) 16%; (0.078 µM) 33%; (0.313 µM) 60%; (1 µM) 75%; (1.25 µM) 84%; (5 µM) 92%.
The sequence “CTTATGTAATAGCCAG (sugars k2 d10 k3 e1, PS)” had a target mRNA inhibition (1 µM) of 70%.
Still for that read-out and setting: to GCTGTACAGTAGGCAG (sugars k3 d10 k3, PS) belongs 66%; to “CTAAACATCTCTGGGA (sugars k3 d9 k3 e1, PS)”, 57%.
Take CCTATGCAAATTCATA (sugars k3 d10 k3, PS): the target mRNA inhibition (1 µM) came to 34%.
Still for that read-out and setting: the result for CTATTGTATGAGGTCT (sugars k3 d10 k3, PS) reads 42%; that for CTACCTCCAAATTCCC (sugars k3 d10 k3, PS), 27%.
Still for that read-out and setting: the result for “GAGATAAAGCTGCCTG (sugars k3 d9 k3 e1, PS)” reads 55%.
Same read-out and setting: the result for “ACCAAACTTCCAGCAG (sugars k3 d1 m1 d8 k3, PS)” reads 54%; that for “TACAGATTGGAATGCT (sugars k3 d9 k3 e1, PS)”, 66%; that for TGACAATGGTTGATAG (sugars k3 d10 k3, PS), 16%.
Turning to ATGATAATTTGGTGTC (sugars k3 d10 k3, PS), the target mRNA inhibition (1 µM) came out at 55%.
Same read-out and setting: the result for AGTAAGGTAAAGTCTA (sugars k3 d10 k3, PS) reads 55%; that for “GCATTAATGCCACCCT (sugars k3 d9 k3 e1, PS)”, 51%.
In turn, ATAGGCAGTAAAGTGC (sugars k3 d10 k3, PS) gave a target mRNA inhibition (1 µM) of 56%.
Turning to TGTGATTGAGTTCTCC (sugars k3 d10 k3, PS), the target mRNA inhibition by setting is: (0.02 µM) 1%; (0.078 µM) 14%; (0.313 µM) 20%; (1 µM) 62%; (1.25 µM) 42%; (5 µM) 70%.
For the sequence “CAAGAGGATAGTCCAT (sugars k3 d9 k3 e1, PS)”, the target mRNA inhibition (1 µM) worked out at 64%.
On the same count and under the same terms, the result for GATCAAATGTATGTGC (sugars k3 d10 k3, PS) reads 25%; that for “GTTTCTTATGTAATAG (sugars kkdddddddddkekek, PS)”, 21%; that for “TAAGATACCCAGGTTG (sugars kkdddddddddkekek, PS)”, 30%.
As to CCAATTTAAATCAGGC (sugars k3 d10 k3, PS), the target mRNA inhibition is 0% (0.02 µM); 17% (0.078 µM); 52% (0.313 µM); 73% (1 µM); 72% (1.25 µM); 89% (5 µM).
For the sequence “CTACTTGAACAGTCTT (sugars k3 d9 k3 e1, PS)”, the target mRNA inhibition (1 µM) stood at 71%.
In the case of AGTAGTGGAGCCAGAC (sugars k3 d10 k3, PS), where the note is “1 µM”, the target mRNA inhibition was 39%.
The same measure, in the same setting: the result for AGGTTTTGATACCAGT (sugars k3 d10 k3, PS) reads 60%; that for TAAGGAGTAGTGGAGC (sugars k3 d10 k3, PS), 18%; that for GTAATCTTGAGGCAGG (sugars k3 d10 k3, PS), 51%.
TTTTAGTCAGGTAGAG (sugars k3 d10 k3, PS) gave a target mRNA inhibition (1 µM) of 3%.
On to ATGTATCTTATAAGAC (sugars k3 d10 k3, PS), for which the target mRNA inhibition (1 µM) came to 0%.
Under “1 µM”, ATACTATTCTCCAACT (sugars k3 d10 k3, PS) displayed a target mRNA inhibition of 25%.
The same measure, in the same setting: the result for GTATGGTAAGCCCCAT (sugars k3 d10 k3, PS) reads 36%.
Take “AATAGAGTCGGTCACC (sugars kkdddddddddkekek, PS)”: the target mRNA inhibition (1 µM) was 13%.
Same read-out and setting: the result for TGATGGTGATCAGAAG (sugars k3 d10 k3, PS) reads 0%; that for TTACAACCTGGTTTCA (sugars k3 d10 k3, PS), 25%.
“TGAACAGTCTTAAACC (sugars k3 d1 m1 d8 k3, PS)” came in with a target mRNA inhibition (1 µM) of 57%.
Still for that read-out and setting: the result for “CTTCATAGTGGACTTC (sugars kkdddddddddkekek, PS)” reads 45%.
In the case of ACTTTTCCGTCTCACA (sugars k3 d10 k3, PS), the target mRNA inhibition runs as follows: (0.02 µM) 0%; (0.078 µM) 19%; (0.313 µM) 61%; (1 µM) 89%; (1.25 µM) 88%; (5 µM) 84%.
For the sequence TAAGAGTCAGTATCCT (sugars k3 d10 k3, PS), where the note is “1 µM”, the target mRNA inhibition came out at 52%.
The same measure, in the same setting: the result for GGGAAAGAAGTCTCCT (sugars k3 d10 k3, PS) reads 13%; that for “ACATCTCTGGGACCAA (sugars kkdddddddddkekek, PS)”, 67%.
For AGACTAAGGGACCAGG (sugars k3 d10 k3, PS), the target mRNA inhibition was found to be 22% (0.02 µM); 24% (0.078 µM); 56% (0.313 µM); 80% (1 µM); 90% (1.25 µM); 94% (5 µM).
Consider GGATACCTGAAAAGCC (sugars k3 d10 k3, PS), for which the target mRNA inhibition is 2% (0.02 µM); 0% (0.078 µM); 38% (0.313 µM); 68% (1 µM); 69% (1.25 µM); 77% (5 µM).
As to TGCCAGGGAATGCTCA (sugars k3 d10 k3, PS), the target mRNA inhibition (1 µM) stood at 23%.
Still for that read-out and setting: the result for “CCAGGTTGAGATAAAG (sugars k3 d1 m1 d8 k3, PS)” reads 49%.
The same measure, in the same setting: the result for TATTCTGTGGCATGGC (sugars k3 d10 k3, PS) reads 71%; that for CTTCTTACGACTTCAT (sugars k3 d10 k3, PS), 45%; that for AAACTTGATCTCTTAG (sugars k3 d10 k3, PS), 61%.
Still for that read-out and setting: the result for CTTTTGTCCACCTTTA (sugars k3 d10 k3, PS) reads 76%.
In the case of “GCTAGTGCCAAACCAA (sugars k3 d1 m1 d8 k3, PS)”, the target mRNA inhibition (1 µM) is 65%.
With “TAGTGTAAGCTGAGAG (sugars kkdddddddddkekek, PS)”, the target mRNA inhibition is, setting by setting: (0.02 µM) 24%; (0.078 µM) 25%; (0.313 µM) 37%; (1 µM) 68%; (1.25 µM) 51%; (5 µM) 81%.
GCCAACAGCGGCAAAT (sugars k3 d10 k3, PS) came in with a target mRNA inhibition (1 µM) of 30%.
The same measure, in the same setting: the result for GGTAAGTATTCCATCT (sugars k3 d10 k3, PS) reads 12%; that for “ATGCTACTTGAACAGT (sugars kkdddddddddkekek, PS)”, 54%.
